Key:
Beta-secretase 1 [1] = biological target: T1, Beta-secretase 1 (Homo sapiens, UniProt P56817); test: Inhibition of BACE1
Beta-secretase 1 [2] = biological target: T1, Beta-secretase 1; test: Inhibition of soluble APPbeta N-terminal fragment production in HEK293T cells; type: functional, cell-based, HEK-293T
[3] = Apparent permeability of the compound; type: ADME; details: not told

T1 sequence (P56817 whole entry, the tested form may be a part): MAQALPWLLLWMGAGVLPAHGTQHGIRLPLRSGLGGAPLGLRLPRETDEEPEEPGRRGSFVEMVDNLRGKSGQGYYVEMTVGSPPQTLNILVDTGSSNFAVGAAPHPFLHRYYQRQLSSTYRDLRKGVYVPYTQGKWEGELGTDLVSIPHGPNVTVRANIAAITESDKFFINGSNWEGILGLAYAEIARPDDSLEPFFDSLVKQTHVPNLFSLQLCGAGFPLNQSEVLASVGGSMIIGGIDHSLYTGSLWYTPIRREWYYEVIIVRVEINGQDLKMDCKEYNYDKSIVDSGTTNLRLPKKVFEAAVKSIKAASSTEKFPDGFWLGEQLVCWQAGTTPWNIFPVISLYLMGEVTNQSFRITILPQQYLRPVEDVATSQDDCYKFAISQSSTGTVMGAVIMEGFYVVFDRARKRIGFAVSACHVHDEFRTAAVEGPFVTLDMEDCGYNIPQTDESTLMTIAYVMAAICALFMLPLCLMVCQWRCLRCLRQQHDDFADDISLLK

Compound | IC50 (Beta-secretase 1 [1]) | IC50 (Beta-secretase 1 [2]) | Papp [3]
CCC[C@H](NC[C@H](Cc1ccccc1)NC(=O)c1cc(C(=O)N[C@H](C)c2ccc(F)cc2)cc(N(C)S(C)(=O)=O)c1)C(=O)NCC(C)C | 4 nM | 17 nM | –
C[C@H](NC[C@H](Cc1ccccc1)NC(=O)c1cc(C(=O)N[C@H](C)c2ccc(F)cc2)cc(N(C)S(C)(=O)=O)c1)C(=O)NCc1ccccc1 | 139 nM | 731 nM | –
CC(C)CNC(=O)[C@H](CCS(C)(=O)=O)NC[C@H](Cc1ccccc1)NC(=O)c1cc(C(=O)N[C@H](C)c2ccc(F)cc2)cc(N(C)S(C)(=O)=O)c1 | 13 nM | 17500 nM | –
CC(C)CNC(=O)[C@H](C)NC[C@H](Cc1ccccc1)NC(=O)c1cc(CCC2C[C@@H]2C)cc(N(C)S(C)(=O)=O)c1 (stereo partly specified) | 20 nM | 23 nM | 24 ×10⁻⁶ cm/s
CC(C)CNC(=O)[C@H](CCO)NC[C@H](Cc1ccccc1)NC(=O)c1cc(C(=O)N[C@H](C)c2ccc(F)cc2)cc(N(C)S(C)(=O)=O)c1 | 13 nM | 751 nM | –
C[C@@H](NC(=O)c1cc(C(=O)N[C@H](CN)Cc2ccccc2)cc(N(C)S(C)(=O)=O)c1)c1ccc(F)cc1 | 5900 nM | – | –
CC(C)CNC(=O)CNC[C@H](Cc1ccccc1)NC(=O)c1cc(C(=O)N[C@H](C)c2ccc(F)cc2)cc(N(C)S(C)(=O)=O)c1 | 117 nM | 3710 nM | –
CCNC(=O)[C@H](C)NC[C@H](Cc1ccccc1)NC(=O)c1cc(C(=O)N[C@H](C)c2ccc(F)cc2)cc(N(C)S(C)(=O)=O)c1 | 52 nM | 242 nM | –
C[C@@H](NC(=O)c1cc(C(=O)N[C@@H](Cc2ccccc2)[C@H](O)CNC2CC2)cc(N(C)S(C)(=O)=O)c1)c1ccc(F)cc1 | – | – | 0.6 ×10⁻⁶ cm/s
CC[C@H](NC[C@H](Cc1ccccc1)NC(=O)c1cc(C(=O)N[C@H](C)c2ccc(F)cc2)cc(N(C)S(C)(=O)=O)c1)C(=O)NCC(C)C | 7 nM | 20 nM | –
C[C@H](NC[C@H](Cc1ccccc1)NC(=O)c1cc(C(=O)N[C@H](C)c2ccc(F)cc2)cc(N(C)S(C)(=O)=O)c1)C(=O)N1CCC[C@H]1C(=O)O | 17200 nM | > 20000 nM | –
C[C@@H](NC(=O)c1cc(C(=O)N[C@H](CO)Cc2ccccc2)cc(N(C)S(C)(=O)=O)c1)c1ccc(F)cc1 | 630 nM | – | –
CC(C)CNC(=O)[C@H](C)NC[C@H](Cc1ccccc1)NC(=O)c1cc(C(=O)N[C@H](C)c2ccc(F)cc2)cc(N(C)S(C)(=O)=O)c1 | – | 22 nM | 10 ×10⁻⁶ cm/s
C[C@H](NC[C@H](Cc1ccccc1)NC(=O)c1cc(C(=O)N[C@H](C)c2ccc(F)cc2)cc(N(C)S(C)(=O)=O)c1)C(=O)NC1CC1 | 24 nM | 133 nM | –
